Assay [1] relates to primary neuronal cultures from embryonic rat brains. The assay can be described thus: Rat oscillation assay (FLIPR, neuronal calcium oscillations). It is filed as cell-based. The settings on record: Rattus norvegicus. The method, then:
This assay is a functional phenotypic assay designed to mimic epileptic seizures using primary neuronal cultures from embryonic rat brains, which form a functional neuronal network that generate synchronized intracellular calcium concentration oscillations when cultured at high density in 384-well plate. The epileptic phenotype is induced by incubating the neurons in magnesium-free assay buffer, that results in increased probability of NMDA receptor activation, leading to an increased frequency and amplitude of intracellular calcium oscillations. Once neurons are incubated with the calcium indicator dye Fluo-8 AM (Tebu-bio), neuronal calcium oscillations can be monitored in real time using FLIPR® Tetra (fluorometric plate reader, Molecular Devices). With these recordings, the effect of anti-epileptic drugs can be quantified. The anti-epileptic effect of compounds, which activate directly or indirectly the Kv7 channels can be modulated by the Kv7 channel blocker XE-991. The assay was performed as described previously (Pacico N, Mingorance-Le Meur A. New In Vitro Phenotypic Assay for Epilepsy: Fluorescent Measurement of Synchronized Neuronal Calcium Oscillations. PLoS ONE 9(1) 2014) with modifications described hereafter.
Animal care followed standard procedures in accordance with swiss institutional guidelines. Dissociated neuronal cultures were obtained from cerebral cortices of embryonic Wistar rats at embryonic stage E18 (Charles River). The uterine horns were removed by caesarian surgery from deeply anesthetized rats (Isofurane) and sacrificed by decapitation. The embryos were decapitated by closing forceps. The brains were isolated and dissected one by one in ice-cold PBS (Life Technologies) under optical control using a binocular. Meninges, olfactory bulbs, and basal ganglia were removed. Cortical hemispheres (still including the hippocampus) were cut in small pieces with tweezers and placed on ice in prechilled Hibernate-E medium (Life technology). The hemispheres were then incubated in 10 mL of Hibernate-E containing 15 U/mL papain (Worthington) for 25 min at 30° C. with gentle mixing every 10 min. Genomic DNA was then digested by prolonging the incubation during 10 min at 37° C. in presence of 4 U/mL rDNase I (Ambion). The obtained suspension was then centrifuged at 800 g for 5 min and the cell pellet was resuspended in 2 mL Hibernate-E and gently dissociated by pipetting up and down 10 times with a plastic Pasteur pipette resulting in a homogenous cell suspension. This suspension was immediately filtered through a 70 µm cell strainer (MACS® SmartStrainer, Miltenyi), collected in 10 mL Hibernate-E and centrifuged at 800 g for 5 min. The cell pellet was resuspended in Neurobasal medium, supplemented with 2% B-27, 0.5 mM Glutamax-I, 100 U/mL penicillin, 100 µg/mL streptomycin (Life Technologies) and diluted at the final concentration of 300′000 cells/mL. One day before plating the cells, 384-well plates were coated with 25 µL/well of 0.1 % poly-L-lysine solution (Sigma), incubated overnight at 37° C., washed two times with sterile distilled water and allowed to dry at room temperature for >2 h. The neurons were seeded at a density of 15′000 cells/well in 50 µL/well in a 384-well black, clear-bottomed plates (Corning) and subsequently maintained in an incubator at 37° C., 5% CO2 and 95% humidity for 8 to 10 days. After 3 and 7 days, 40% of media was renewed under sterile conditions.
Neurons seeded in the assay plates were washed with Hank’s balanced salt solution (HBSS) devoid of Ca^2+ and Mg^2+, supplemented with 20 mM HEPES (Life Technologies) and 2 mM CaCl2 (Sigma), pH 7.4 (hereafter called Assay buffer) using a Biotek EL406 plate washer. Neurons were loaded with 1 µM Fluo-8 AM in Assay buffer for 15 min at 37° C., 5% CO2. […]

Assay [2] has as its system audiogenic generalized convulsive seizures in DBA/2J mice. The experiment in a line: Audiogenic seizure-sensitive mouse model of generalized convulsive seizures. Type of assay: in vivo. The following applies: challenge 1h. The method, then: Compounds were formulated in a 10% polyethylene glycol 400 (PEG 400) / 90% aqueous solution of 0.5 % methylcellulose (MC 0.5%). Firstly drugs are dissolved in PEG 400 and then suspended in MC 0.5 % for oral gavage at Xmg/5 mL/kg (X see table).
• 1. Procedure: Following two days of acclimatisation, auditory seizures are induced in male juvenile DBA/2J mice (22-24 days old; Janvier Labs, France). Each mouse is placed individually in the exposure chamber, an hemispheric acrylic glass dome (diameter: 50 cm) within a sound-attenuated box. The soundattenuated box is equipped with two house lights and a camera system (Fire-I from Unibrain) in order to observe and record the behavioral seizure response. After 60 seconds of habituation, the stimulus, a mixed frequency tone of 15-20 kHz at 110 dB (SASLab Lite, Avisoft Bioacoustics), is played from a speaker that is placed on the top center of the dome. […] Seizures are classified as following: stage 0, normal behavior; stage 1, wild running; stage 2, generalized clonus; stage 3, tonic extension of the hind limbs. • 2. Compounds testing: Acute compound effects on audiogenic generalized convulsive seizures are evaluated in independent groups of 8-10 mice randomly assigned. Following oral administration of compound or vehicle, the maximum seizure stage during sound exposure is assessed. Compounds are given 1 hour before exposure to the stimulus. Each mouse is exposed to the auditory stimulus only once and euthanized afterwards by CO2 inhalation.

The target of assay [3] is T1, Kv7.2/7.3 (human KCNQ2 and KCNQ3 genes) in HEK293 cells (Homo sapiens, UniProt O43525+O43526).
T1 construct: host or cells: HEK293
The experiment in a line: Kv7.2/3 assay (FLIPR potassium assay, agonist mode). The following applies: Kv7.2/7.3 activation, responses relative to Flupirtine. Type of assay: cell-based. How it is done: HEK293 cells were stably transfected with the appropriate ion channel cDNA(s) (human KCNQ2 and KCNQ3 genes). Cells were cultured in Dulbecco’s Modified Eagle Medium /Nutrient mixture F-12 (D-MEM/F-12) supplemented with 10% fetal bovine serum, 100 U/mL penicillin G sodium, 100 µg/mL streptomycin sulfate and selection antibiotics. FLIPR Test Procedure: For FLIPR assay, cells were plated in 384-well black clear-bottomed microtiter plates (BD Biocoat Poly-D-Lysine Multiwell Cell Culture Plate) at 15′000 to 30′000 cells per well. Cells were incubated at 37° C. overnight or until cells reached sufficient density in the wells (near confluent monolayer) to use in fluorescence assays. […] Assays were performed with the FLIPR potassium assay kit (Molecular Devices) according to the manufacturer’s instructions. Dye-loading: Growth media was removed and replaced with 20 µL of dye loading buffer for 60 min at room temperature. FLIPR Recording (agonist mode): Stock solutions of test compounds were prepared at a concentration of 33.3 mM in DMSO. 5 µL of 5x concentrated test, vehicle, or control compounds solutions prepared in the stimulation buffer (K^+-free buffer with 5 mM TI^+) were added to each well and fluorescence recording was continued for 5 min. The agonist effect (EC50 and % effect) of test or control compounds on Kv7 channels was determined as follows: Raw data was exported using Screenworks® 4.2 software and the fluorescence traces were analysed using Microsoft Excel (Microsoft Corp., Redmond, WA). The test compounds responses were expressed as % of maximum response of the control compound Flupirtine (Sigma-Aldrich), which was tested at concentrations ranging from 0.03 to 100 µM. Concentration-response data were fitted to a Hill equation. Non-linear least squares fits were made assuming a simple binding model. If appropriate, fits were weighted by the standard deviation. No assumptions about the fit parameters were made; the fit parameters were determined by the algorithm.

Assay [4] relates to seizure activity in various rodent models. The following applies: acute seizure models, DBA2 mice, rat kindling model; cited from earlier work.
The test system of assay [5] is Knock-in mice carrying a KCNQ2 or KCNQ3 variant. The settings on record: knock-in mice with spontaneous seizures, reduced seizure thresholds; cited from earlier work.
Assay [6] relates to patients with drug-resistant focal-onset seizures. The settings on record: two phase three trials; cited from earlier work.
The mark [7] stands for this setting: 20 min, 20 min after compound addition, AUC of fluorescence, read-out: FLIPR: IC50 [nM] 20 min.
The mark [8] stands for this setting: Cortical neurone, acute phase, ratio of AUC fluorescence before and after compound addition, rat cortical neurons, Mg-free buffer, read-out: FLIPR: IC50 [nM] acute.

Where two headings read alike, the source gives them in different places.

Turning to `O=C(NCc1cccc(OC(F)(F)F)c1)NC12CC(C(F)(F)F)(C1)C2` [Example 23, 1-(3-Trifluoromethoxy-Benzyl)-3-(3-Trifluoromethyl-Bicyclo[1.1.1]Pent-1-yl)-Urea], the concentration for half-maximal inhibition (IC50) in assay [1] (setting [7]) is 53 nM; in assay [1] (setting [8]), 75 nM. Besides, in assay [2] (30 mg/kg po), the “Seizure stage [% vs. vehicle]” value is -85 % vs. vehicle.

For the compound `O=C(NCc1cccc(OC(F)(F)F)c1)NC12CC(F)(C1)C2` [Example 24, 1-(3-Fluoro-bicyclo[1.1.1]pent-1-yl)-3-(3-trifluoromethoxybenzyl)-urea], the IC50 in assay [1] (setting [7]) was found to be 198 nM; in assay [1] (setting [8]) it was 208 nM. Besides, the “Seizure stage [% vs. vehicle]” value in assay [2] (30 mg/kg po) is on record as -100 % vs. vehicle. This compound yielded an EC50 in assay [3] of 0.143 µM.

In the case of `O=C(NCc1cccc(C(F)(F)F)c1)NC12CC(C(F)(F)F)(C1)C2` [Example 37, 1-(3-Trifluoromethyl-benzyl)-3-(3-trifluoromethyl-bicyclo[1.1.1]pent-1-yl)-urea], the IC50 turned out to be 32 nM in assay [1] (setting [7]) and 26 nM in assay [1] (setting [8]). The “Seizure stage [% vs. vehicle]” value in assay [2] (15 mg/kg po) is recorded as -100 % vs. vehicle. The compound also gave an EC50 in assay [3] of 0.03 µM.

With `CCOC(=O)Nc1ccc(NCc2ccc(F)cc2)cc1N` [Retigabine/ezogabine], the seizure activity entry in assay [4] is on record as “reduces seizure activity”. The seizures entry in assay [5] was “attenuated”. The seizure frequency result in assay [6] is given as “significantly reduced seizure frequency”.

A word on the IC50: it is the concentration needed to halve the response being measured. In general, EC50 refers to the midpoint of the concentration-response curve. A high value points to a less potent agent.

The values are drawn from patent US20230303486A1, “CYCLOBUTYL-UREA DERIVATIVES” (Idorsia Pharmaceuticals Ltd, priority 2020, published 2023).
